# From US8895313B2, “Ligands for aggregated tau molecules” (Wista Laboratories Ltd., priority 2008, dated 2014)
# Target: PHF (paired helical filaments) isolated from the brain of an Alzheimer's disease patient (Homo sapiens, UniProt P10636)
# Experiment: Competitive binding assay: displacement of primulin fluorescence from PHFs
# Set-up: key to P50: fl indicates that the compound is fluorescent. Consequently, binding levels for the compound in the competition binding assay cannot be determined by fluorescent spectroscopy
# Conditions: compound fluorescent, no P50 obtainable
# Method: The DSB compounds were tested for their ability to bind to PHF in a competition-style assay.
# If a test compound that also binds to PHFs with the same or greater affinity is added, it will displace the reference ligand and reduce the fluorescence signal. In the present assay, the reference compound is primulin, which was added at 1 μM. Test compounds were added at concentrations from 0.05 to 1 μM. The P50 for a test compound is defined as the concentration of compound that reduces the primulin signal to 50% of the control value. This value is, therefore, not an absolute affinity, but a relative affinity compared to the affinity of primulin.
# PHFs were isolated from the brain of an Alzheimer's disease patient essentially as described by Wischik et al. (Neurobiology of Aging, Vol. 16, pp. 409-431, 1995). The IFII fraction was isolated by centrifugation on a sucrose gradient as described in the PhD thesis of C. M. Wischik, and was further extracted into an ‘abc sup’ as described by C. M. Wischik (Thesis “The structure and biochemistry of paired helical filaments in Alzheimer's disease” Part I and II; Cambridge University, 1989).
# The assay for ligand activity was performed in 96 well plates (Nunc Cat. No. 236108). The test compound at the required concentration was mixed with PHFs, then primulin was added to give a final concentration of 1 μM and a total volume of 100 μl. The concentration of PHFs added was determined for each preparation to give an adequate fluorescence signal, and was typically in the range 1-2 μl/100 μl. The test compounds were typically dissolved in DMSO to give a final concentration of 10% DMSO in the assay. The control fluorescence, in the absence of PHFs, was also measured in the presence of 10% DMSO.
# The fluorescence was measured in a Varian Carey Eclipse Fluorescence Spectrophotometer, with the […] wavelength at 480 nm. Excitation spectra were recorded and corrected by subtraction of the signal measured in the absence of PHFs, using the Varian software. The fluorescence signal at the peak […] wavelength of 420 nm was measured from the corrected spectra. The fluorescence values were plotted as a function of concentration of test compound, and the value for P50 measured from the graph.
# Sequence of PHF (paired helical filaments) isolated from the brain of an Alzheimer's disease patient (P10636 623-708 limits assumed): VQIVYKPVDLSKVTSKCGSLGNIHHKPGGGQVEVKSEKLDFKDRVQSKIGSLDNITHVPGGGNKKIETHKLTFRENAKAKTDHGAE
row,SMILES,P50
1,Oc1ccc(/C=C/c2ccc(-c3nc4ccc(O)cc4s3)cc2)c(C(F)(F)F)c1 [BEHF-07],fl
2,Oc1ccc2nc(-c3ccc(/C=C/c4ccc(F)cc4)cc3)sc2c1 [BEHF-01],fl
3,COc1ccc2nc(-c3ccc(/C=C/c4ccc(NC(=O)C(F)(F)F)cc4)cc3)sc2c1 [BEFA-06],fl
4,Oc1ccc2nc(-c3ccc(/C=C/c4ccc(NCC(F)(F)F)cc4)cc3)sc2c1 [BEHF-02],fl

# Same assay, conditions: concentration that reduces the signal of 1 μM primulin to 50% of control; relative affinity
row,SMILES,P50
1,O=C(Nc1ccc(-c2nc3ccc(O)cc3s2)cc1)c1ccc(OCCC(F)(F)F)cc1 [ABFHA-04],no effect
2,COc1ccc2nc(-c3ccc(/C=C/c4ccc(OCCF)cc4)cc3)sc2c1 [BEFA-12],no effect
3,Cc1ccc2nc(-c3ccc(/C=C/c4cccc(N)c4)cc3)sc2c1 [BEMA-06],no effect
4,Cc1ccc2nc(-c3ccc(NC(=O)c4cccc(N(C)C)c4)cc3)sc2c1 [ABAA-08],no effect
5,Cc1ccc2nc(-c3ccc(NC(=O)c4ccccc4N)cc3)sc2c1 [ABAA-04],no effect
6,Cc1ccc2nc(-c3ccc(NC(=O)c4ccc(F)c(C(F)(F)F)c4)cc3)cn2c1 [AIPN-17],no effect
7,COc1ccc2nc(-c3ccc(NC(=O)c4ccc(N)cc4C(F)(F)F)cc3)sc2c1 [ABFMA-16],no effect
8,Cc1ccc2nc(-c3ccc(NC(=O)c4cccnc4)cc3)cn2c1 [AIPN-04],no effect
9,COc1ccc2nc(-c3ccc(NC(=O)c4cccc(C(F)(F)F)c4)cc3)sc2c1 [ABFMA-02],no effect
10,Cc1ccc2nc(-c3ccc(/N=N/c4c(C(F)(F)F)cc(O)cc4C(F)(F)F)cc3)sc2c1 [BDF-08],no effect
11,COc1ccc2nc(-c3ccc(NC(=O)c4ccc(N(C)C)cc4C(F)(F)F)cc3)sc2c1 [ABFMA-18],no effect
12,Cc1ccc2nc(-c3ccc(NC(=O)c4cccc(N)c4)cc3)sc2c1 [ABAA-05],no effect
13,CN(C)c1ccc(C(=O)Nc2ccc(-c3cn4cccnc4n3)cc2)cc1 [AIPM-01],no effect
14,COc1ccc2nc(-c3ccc(NC(=O)c4ccc(C(F)(F)F)cc4)cc3)sc2c1 [ABFMA-03],no effect
15,Oc1ccc(/N=N/c2ccc(-c3nc4cc(OC(F)(F)F)ccc4s3)cc2)cc1 [BDF-09],no effect
16,COc1ccc2nc(-c3ccc(NC(=O)c4ccc(OCCF)cc4)cc3)sc2c1 [ABMFMA-06],no effect
17,COc1cccc(/C=C/c2ccc(-c3nc4ccc(C)cc4s3)cc2)c1 [BEMA-12],no effect

# Same assay, conditions: concentration that reduces the signal of 1 μM primulin to 50% of control; relative affinity; read-out: P50
row,SMILES,IC50
1,Oc1ccc(/N=N/c2ccc(-c3nc4ccc(O)cc4s3)c(O)c2)c(OCCCC(F)(F)F)c1 [BDF-15],140 nM
2,Cc1ccc2nc(-c3ccc(NC(=O)c4ccc(NO)c(C(F)(F)F)c4)cc3)cn2c1 [AIPN-10],180 nM
3,CN(C)c1ccc(C(=O)Nc2ccc(-c3cn4ccccc4n3)cc2)cc1 [AIPN-01],> 1000 nM
4,COc1ccc2sc(-c3ccc(/N=N/c4ccc(O)cc4C(F)(F)F)cc3)nc2c1 [BDF-11],600 nM
5,COc1ccc2nc(-c3ccc(/N=N/c4ccc(O)cc4C(F)(F)F)cc3)sc2c1 [BDF-03],130 nM
6,Cc1ccc2nc(-c3ccc(NC(=O)c4ccc([N+](=O)[O-])cc4)cc3)cn2c1 [AIPN-08],100 nM
7,O=C(Nc1ccc(-c2nc3ccc(O)cc3s2)cc1)c1ccc(OCCCC(F)(F)F)cc1 [ABFHA-05],400 nM
8,COc1ccc(C(=O)Nc2ccc(-c3cn4cc(C)ccc4n3)cc2)cc1C(F)(F)F [AIPN-28],> 1000 nM
9,COc1ccc2nc(-c3ccc(/C=C/c4ccc([N+](=O)[O-])cc4)cc3)sc2c1 [BEMOA-03],40 nM
10,Cc1ccc2nc(-c3ccc(NC(=O)c4ccccn4)cc3)cn2c1 [AIPN-05],510 nM
11,CN(C)c1ccc2nc(-c3ccc(/N=N/c4ccc(O)cc4C(F)(F)F)cc3)sc2c1 [BDF-06],40 nM
12,Cc1ccc2nc(-c3ccc(NC(=O)c4cc(F)c(N(C)C)c(F)c4)cc3)cn2c1 [AIPN-16],> 1000 nM
13,COc1ccc2nc(-c3ccc(NC(=O)c4ccc(Cl)nc4)cc3)sc2c1 [ABMFMA-03],340 nM
14,COc1ccc2nc(-c3ccc(/C=C/c4cccc(N)c4)cc3)sc2c1 [BEMOA-05],280 nM
15,O=C(Nc1ccc(-c2nc3ccc(O)cc3s2)c(O)c1)c1ccc(F)cc1 [ABFHA-07],100 nM
16,COc1cccc2sc(-c3ccc(/N=N/c4ccc(O)cc4C(F)(F)F)cc3)nc12 [BDF-13],350 nM
17,O=C(Nc1ccc(-c2nc3ccc(O)cc3s2)c(O)c1)c1cc(OC(F)(F)F)ccc1O [ABFHA-06],390 nM
18,Nc1ccc(C(=O)Nc2ccc(-c3nc4ccc(O)cc4s3)cc2)cc1C(F)(F)F [ABFHA-02],340 nM
19,COc1ccc2nc(-c3ccc(NC(=O)c4cccc(N(C)C)c4)cc3)sc2c1 [ABMA-08],~1200 nM
20,Oc1ccc(/N=N/c2ccc(-c3nc4ccc(O)cc4s3)cc2)c(C(F)(F)F)c1 [BDF-04],80 nM
21,Cc1ccc2nc(-c3ccc(NC(=O)c4ccc(N(C)C)c(F)c4)cc3)cn2c1 [AIPN-22],760 nM

row,SMILES,IC50
1,COc1ccc(C(=O)Nc2ccc(-c3cn4cc(C)ccc4n3)cc2)cc1F [AIPN-23],950 nM
2,COc1ccc2nc(-c3ccc(NC(=O)c4ccc([N+](=O)[O-])c(C(F)(F)F)c4)cc3)sc2c1 [ABFMA-12],170 nM
3,Nc1cccc(C(=O)Nc2ccc(-c3nc4ccc(O)cc4s3)cc2)c1 [ABHA-02],560 nM
4,Cc1ccc2nc(-c3ccc(NC(=O)c4cc(F)c(O)c(F)c4)cc3)cn2c1 [AIPN-26],> 1000 nM
5,COc1ccc2nc(-c3ccc(NC(=O)c4ccc(F)c([N+](=O)[O-])c4)cc3)sc2c1 [ABMFMA-05],200 nM
6,COc1ccc2nc(-c3ccc(NC(=O)c4ccccc4N(C)C)cc3)sc2c1 [ABMA-07],1350 nM
7,O=C(Nc1ccc(-c2nc3ccc(O)cc3s2)cc1)c1ccc([N+](=O)[O-])c(C(F)(F)F)c1 [ABFHA-01],190 nM
8,Cc1ccc2nc(-c3ccc(NC(=O)c4cccc(O)c4)cc3)sc2c1 [ABAA-11],~1200 nM
9,O=C(Nc1ccc(-c2nc3ccc(O)cc3s2)cc1)c1ccc(O)cc1C(F)(F)F [ABFHA-08],> 1000 nM
10,COc1c(F)cc(C(=O)Nc2ccc(-c3cn4cc(C)ccc4n3)cc2)cc1F [AIPN-24],~1000 nM
11,COc1ccc2sc(-c3ccc(/N=N/c4ccc(C(F)(F)F)cc4O)cc3)nc2c1 [BDF-10],870 nM
12,O=C(Nc1ccc(-c2nc3ccc(O)cc3s2)cc1)c1cc(OC(F)(F)F)ccc1O [ABFHA-09],> 1000 nM
13,Cc1ccc2nc(-c3ccc(/C=C/c4cccc(O)c4)cc3)sc2c1 [BEMA-10],~1200 nM
14,Oc1ccc(/N=N/c2ccc(-c3nc4ccc(O)cc4s3)cc2O)c(C(F)(F)F)c1 [BDF-16],30 nM
15,COc1ccc2nc(-c3ccc(/C=C/c4ccc(O)c([N+](=O)[O-])c4)cc3)sc2c1 [BEMOA-09],30 nM
16,Oc1ccc(/N=N/c2ccc(-c3nc4ccc(O)cc4s3)c(O)c2)c(C(F)(F)F)c1 [BDF-14],20 nM
17,O=C(Nc1ccc(-c2nc3ccc(O)cc3s2)c(C(F)(F)F)c1)c1ccc(O)cc1 [ABFHA-10],> 1000 nM
18,CNc1c(F)cc(C(=O)Nc2ccc(-c3cn4cc(C)ccc4n3)cc2)cc1F [AIPN-21],460 nM
19,Cc1ccc2nc(-c3ccc(/N=N/c4ccc(N(C)C)cc4)cc3)cn2c1 [DPN-001],30 nM
20,CN(C)CCOc1ccc2nc(-c3ccc(NC(=O)c4ccc([N+](=O)[O-])c(C(F)(F)F)c4)cc3)sc2c1 [ABDMAA-02],> 1000 nM
